Laboratory results as given in patent US10954214B2 (Janssen Pharmaceutica NV, priority 2016, dated 2021).

Key:
[1] = tested on: IL10 secretion by OCI-LY3 ABC-DLBCL cells; experiment: Human IL10 Mesoscale assay (OCI-LY3); format: cell-based; conditions: 24 h
Description: (§1) NFKB signaling regulates the secretion of multiple cytokines, including IL6 and IL10. Secretion of the cytokines IL6 and IL10 by TMD8 or OCI-LY3 ABC-DLBCL cells was measured using a mesoscale assay. Inhibition of NFKB signaling by MALT1 or BTK inhibitors results in a decrease of IL6/10 secretion.
(§2) TMD8 or OCI-LY3 cells were propagated in RPMI-1640 (Sigma Aldrich) supplemented with 10% fetal bovine serum (HyClone), 1 mM sodium pyruvate (Invitrogen), 2 mM L-glutamine (Sigma Aldrich) and 1% PenStrep (Sigma Aldrich). Cell passage number should not exceed 30. Cells should be kept between 0.5-2.5 million cells per mL during culturing and cells should be supplemented every 2-3 days with fresh 50 μM beta-mercaptoenthanol. No beta-mercaptoethanol was used during the mesoscale assay.
(§3) For the Mesoscale assay, 100,000 TMD8 or OCI-LY3 cells were seeded per well into black-colored 96-well plates with clear bottom (Corning #3904) and test compounds were added in 9 dilution steps (1:2) ranging from 15 μM to 58.6 nM (final DMSO concentration 0.3%). DMSO control wells were used to determine the maximum signal (High Control (HC)). Treatment with the BTK inhibitor RN486 in a dose range from 30 nM to 131 pM (9 dilutions of 1:2) served as a positive control for NFKB pathway inhibition and was used to determine the maximum inhibition (Low Control (LC)). Compounds and cells were incubated for 24 h at 37° C. and 5% CO2 (assay volume is 150 μL). After 24 h of incubation 50 μL of the supernatant was transferred to a MSD plate (V-Plex Proinflammation Panel 1 (human) kit, Mesoscale (MSD)) and incubated for 2 h with vigorous shaking (600 rpm) at room temperature. Following incubation, plates were washed 3× with PBS+0.05% Tween-20 and 25 μL detection antibody solution (IL6 & IL10 antibodies in diluent 3 (MSD)) was added per well followed by 2 h of incubation with vigorous shaking (600 rpm) at room temperature. After 3× washes with PBS+0.05% Tween-20, plates were incubated with 150 μL 2× Read Buffer T and read on SECTOR imager.

[2] = biological target: full-length MALT1 protein (Strep-MALT1(1-824)-His) (Homo sapiens (Human), UniProt Q9UDY8); experiment: MALT1 Biochemical Protease Assay (Ac-LRSR-AMC substrate); conditions: 10 nM FL MALT1, 200 μM Ac-LRSR-AMC, 4 h at RT; read-out: MALT1_Biochemical activity (Ac-LRSR-amc) IC50
Method in brief: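 Full-length MALT1 pre-incubated with compounds (30 μM to 0.5 nM, 11 threefold steps) for 50 min at RT. After Ac-LRSR-AMC was added, the reaction ran 4 h at RT and AMC fluorescence was read. IC50 and Hill slope from curve fitting against no-enzyme and no-compound controls.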

[3] = tested on: IL6 secretion by OCI-LY3 ABC-DLBCL cells; experiment: Human IL6 Mesoscale assay (OCI-LY3); format: cell-based; conditions: 24 h
Description: as §1, §2, §3

[4] = tested on: IL6 secretion by TMD8 ABC-DLBCL cells; experiment: Human IL6 Mesoscale assay (TMD-8); format: cell-based; conditions: Homo sapiens, TMD8; TMD-8 cells, 24 h
Method in brief: (§4)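 Read-out: MSD electrochemiluminescence of IL6/IL10 in supernatants. Cells (100,000/well, no beta-mercaptoethanol) were exposed to compounds at 15 μM down to 58.6 nM, 1:2 dilutions, for 24 h at 37° C, 5% CO2. Normalised between DMSO (high) and RN486 (low) controls.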

[5] = tested on: IL10 secretion by TMD8 ABC-DLBCL cells; experiment: Human IL10 Mesoscale assay (TMD-8); format: cell-based; conditions: Homo sapiens, TMD8; TMD-8 cells, 24 h
Method in brief: as §4

Chain of full-length MALT1 protein (Strep-MALT1(1-824)-His) (Q9UDY8 whole entry): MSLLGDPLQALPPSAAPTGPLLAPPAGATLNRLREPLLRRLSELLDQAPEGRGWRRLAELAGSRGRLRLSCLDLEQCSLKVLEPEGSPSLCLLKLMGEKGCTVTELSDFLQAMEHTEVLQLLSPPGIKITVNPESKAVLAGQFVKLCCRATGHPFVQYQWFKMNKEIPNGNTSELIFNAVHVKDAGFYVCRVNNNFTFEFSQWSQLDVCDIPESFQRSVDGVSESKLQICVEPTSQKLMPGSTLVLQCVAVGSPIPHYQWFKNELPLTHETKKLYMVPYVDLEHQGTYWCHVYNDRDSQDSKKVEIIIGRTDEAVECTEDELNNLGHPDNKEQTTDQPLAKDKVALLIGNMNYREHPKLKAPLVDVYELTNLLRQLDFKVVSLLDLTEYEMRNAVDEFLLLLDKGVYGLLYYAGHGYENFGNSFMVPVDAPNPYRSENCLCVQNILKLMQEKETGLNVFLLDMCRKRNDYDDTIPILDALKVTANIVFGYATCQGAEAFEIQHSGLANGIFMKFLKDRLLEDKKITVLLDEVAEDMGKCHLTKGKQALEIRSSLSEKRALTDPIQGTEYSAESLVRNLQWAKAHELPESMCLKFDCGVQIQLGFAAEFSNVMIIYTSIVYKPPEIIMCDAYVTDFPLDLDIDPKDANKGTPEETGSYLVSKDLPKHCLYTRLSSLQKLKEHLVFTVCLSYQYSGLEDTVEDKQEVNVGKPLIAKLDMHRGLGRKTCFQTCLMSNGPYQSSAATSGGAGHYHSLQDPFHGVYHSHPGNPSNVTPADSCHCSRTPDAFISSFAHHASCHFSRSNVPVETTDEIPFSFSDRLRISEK

Row | Molecule | IC50 ([1]; Homo sapiens) [nM] | IC50 [2] [nM] | IC50 ([3]; Homo sapiens) [nM] | IC50 [4] [nM] | IC50 [5] [nM] | IC50 [1] [nM] | IC50 [3] [nM]
1 | CN(C)Cc1cnnn1-c1ncc(NC(=O)c2cnn(-c3cccc4ncccc34)c2C(F)(F)F)cc1Cl [Cpd 270, N-(5-chloro-6-(5-((dimethylamino)methyl)-1H-1,2,3-triazol-1-yl)pyridin-3-yl)-1-(quinolin-5-yl)-5-(trifluoromethyl)-1H-pyrazole-4-carboxamide] | 98 | 145 | 170 | – | – | – | –
2 | O=C(Nc1cnc(-n2nnc3cccnc32)c(Cl)c1)c1cnn(-c2cccc3ncccc23)c1C(F)(F)F [Cpd 165, N-(6-(3H-[1,2,3]triazolo[4,5-b]pyridin-3-yl)-5-chloropyridin-3-yl)-1-(quinolin-5-yl)-5-(trifluoromethyl)-1H-pyrazole-4-carboxamide] | 339 | 245 | 447 | – | – | – | –
3 | O=C(Nc1cnc(-n2nccn2)c(Cl)c1)c1cnn(-c2cccc3[nH]c(=O)ccc23)c1C(F)(F)F [Cpd 344, N-(5-chloro-6-(2H-1,2,3-triazol-2-yl)pyridin-3-yl)-1-(2-oxo-1,2-dihydroquinolin-5-yl)-5-(trifluoromethyl)-1H-pyrazole-4-carboxamide] | 52 | 1230 | 52 | – | – | – | –
4 | Cc1cc(NC(=O)c2cnn(-c3cnc(N)c4ccccc34)c2C(F)(F)F)c(C)nc1-n1nccn1 [Cpd 334, 1-(1-aminoisoquinolin-4-yl)-N-(2,5-dimethyl-6-(2H-1,2,3-triazol-2-yl)pyridin-3-yl)-5-(trifluoromethyl)-1H-pyrazole-4-carboxamide] | 251 | 417 | 186 | – | – | – | –
5 | Cc1nc2cccc(-n3ncc(C(=O)Nc4cnc(-n5nccn5)c(C#N)c4)c3C(F)(F)F)c2o1 [Cpd 271, N-(5-cyano-6-(2H-1,2,3-triazol-2-yl)pyridin-3-yl)-1-(2-methylbenzo[d]oxazol-7-yl)-5-(trifluoromethyl)-1H-pyrazole-4-carboxamide] | 95 | 145 | 112 | – | – | – | –
6 | N-(5-cyano-6-(2H-1,2,3-triazol-2-yl)pyridin-3-yl)-1-(imidazo[1,2-a]pyrazin-5-yl)-3-(trifluoromethyl)-1H-pyrazole-4-carboxamide [Cpd 275] | – | 138 | – | – | – | 234 | 240
7 | O=C(Nc1cnc(-n2nncc2CO)c(Cl)c1)c1cnn(-c2cccc3c(=O)[nH]ccc23)c1C(F)(F)F [Cpd 168, N-(5-chloro-6-(5-(hydroxymethyl)-1H-1,2,3-triazol-1-yl)pyridin-3-yl)-1-(1-oxo-1,2-dihydroisoquinolin-5-yl)-5-(trifluoromethyl)-1H-pyrazole-4-carboxamide] | 44 | 107 | 123 | – | – | – | –
8 | Cc1cc(-n2nccn2)c(C#N)cc1NC(=O)c1cnn(-c2cnc(N)c3ccccc23)c1C(F)(F)F [Cpd 337, 1-(1-aminoisoquinolin-4-yl)-N-(5-cyano-2-methyl-4-(2H-1,2,3-triazol-2-yl)phenyl)-5-(trifluoromethyl)-1H-pyrazole-4-carboxamide] | 182 | 141 | 209 | – | – | – | –
9 | Cn1ncc2ccnc(-n3ncc(C(=O)Nc4cnc(-n5nccn5)c(C#N)c4)c3C(F)(F)F)c21 [Cpd 259, N-(5-cyano-6-(2H-1,2,3-triazol-2-yl)pyridin-3-yl)-1-(1-methyl-1H-pyrazolo[3,4-c]pyridin-7-yl)-5-(trifluoromethyl)-1H-pyrazole-4-carboxamide] | 151 | 219 | 145 | – | – | – | –
10 | Cc1cn2c(-n3ncc(C(=O)Nc4cnc(-n5nccn5)c(Cl)c4)c3C(F)(F)F)cccc2n1 [Cpd 199, N-(5-chloro-6-(2H-1,2,3-triazol-2-yl)pyridin-3-yl)-1-(2-methylimidazo[1,2-a]pyridin-5-yl)-5-(trifluoromethyl)-1H-pyrazole-4-carboxamide] | – | 110 | 295 | – | – | – | –
11 | O=C(Nc1cnc(-n2nc3cccnc3n2)c(Cl)c1)c1cnn(-c2cccc3ncccc23)c1C(F)(F)F [Cpd 164, N-(6-(2H-[1,2,3]triazolo[4,5-b]pyridin-2-yl)-5-chloropyridin-3-yl)-1-(quinolin-5-yl)-5-(trifluoromethyl)-1H-pyrazole-4-carboxamide] | – | 282 | 1660 | – | – | – | –
12 | N#Cc1cc(NC(=O)c2cnn(-c3cc(N)nc4ccccc34)c2C(F)(F)F)cnc1-n1nccn1 [Cpd 329, 1-(2-aminoquinolin-4-yl)-N-(5-cyano-6-(2H-1,2,3-triazol-2-yl)pyridin-3-yl)-5-(trifluoromethyl)-1H-pyrazole-4-carboxamide] | – | 661 | – | 1660 | 1440 | – | –
13 | NCc1cnnn1-c1ncc(NC(=O)c2cnn(-c3cccc4ncccc34)c2C(F)(F)F)cc1Cl [Cpd 248, N-(6-(5-(aminomethyl)-1H-1,2,3-triazol-1-yl)-5-chloropyridin-3-yl)-1-(quinolin-5-yl)-5-(trifluoromethyl)-1H-pyrazole-4-carboxamide] | – | 331 | – | 1510 | 468 | – | –

The next lines start with results.

Row | IC50 ([1]; Homo sapiens) [nM] | IC50 [2] [nM] | IC50 ([3]; Homo sapiens) [nM] | IC50 [4] [nM] | IC50 [5] [nM] | Molecule | IC50 [1] [nM] | IC50 [3] [nM]
14 | 31 | 98 | 28 | – | – | O=C(Nc1ccnc(C(F)(F)F)c1)c1cnn(-c2cncc3sccc23)c1C(F)(F)F [Cpd 364, 1-(thieno[2,3-c]pyridin-4-yl)-5-(trifluoromethyl)-N-(2-(trifluoromethyl)pyridin-4-yl)-1H-pyrazole-4-carboxamide] | – | –
15 | 110 | 1320 | 141 | – | – | O=C(Nc1cnc(-n2nccn2)c(Cl)c1)c1cnn(-c2cnc([C@H]3CCCO3)c3ccccc23)c1C(F)(F)F (single isomer, unassigned) [Cpd 436, (*R)—N-(5-chloro-6-(2H-1,2,3-triazol-2-yl)pyridin-3-yl)-1-(1-(tetrahydrofuran-2-yl)isoquinolin-4-yl)-5-(trifluoromethyl)-1H-pyrazole-4-carboxamide] | – | –
16 | 309 | 174 | 437 | – | – | COc1cc(-n2ncc(C(=O)Nc3cnc(-n4nccn4)c(Cl)c3)c2C(F)(F)F)c2ccccc2n1 [Cpd 417, N-(5-chloro-6-(2H-1,2,3-triazol-2-yl)pyridin-3-yl)-1-(2-methoxyquinolin-4-yl)-5-(trifluoromethyl)-1H-pyrazole-4-carboxamide] | – | –
17 | 112 | 62 | 162 | – | – | C[C@@H](O)c1ncc(-n2ncc(C(=O)Nc3cnc(-n4nccn4)c(Cl)c3)c2C(F)(F)F)c2ccccc12 (single isomer, unassigned) [Cpd 442, (*R)—N-(5-chloro-6-(2H-1,2,3-triazol-2-yl)pyridin-3-yl)-1-(1-(1-hydroxyethyl)isoquinolin-4-yl)-5-(trifluoromethyl)-1H-pyrazole-4-carboxamide] | – | –
18 | – | 91 | – | 912 | 2630 | COCc1ncc(-n2ncc(C(=O)Nc3cnc(-n4nccn4)c(Cl)c3)c2C(F)(F)F)c2ccccc12 [Cpd 404, N-(5-chloro-6-(2H-1,2,3-triazol-2-yl)pyridin-3-yl)-1-(1-(methoxymethyl)isoquinolin-4-yl)-5-(trifluoromethyl)-1H-pyrazole-4-carboxamide] | – | –
19 | – | 178 | – | 4270 | 1000 | O=C1CO[C@H](c2ncc(-n3ncc(C(=O)Nc4cnc(-n5nccn5)c(Cl)c4)c3C(F)(F)F)c3ccccc23)C1 (single isomer, unassigned) [Cpd 439, (*S)—N-(5-chloro-6-(2H-1,2,3-triazol-2-yl)pyridin-3-yl)-1-(1-(4-oxotetrahydrofuran-2-yl)isoquinolin-4-yl)-5-(trifluoromethyl)-1H-pyrazole-4-carboxamide] | – | –
20 | – | 4900 | – | 21 | 43 | O=C(Nc1cnc(-n2nccn2)c(Cl)c1)c1cnn(-c2cccc3nc(C4CCN4)ccc23)c1C(F)(F)F (stereo not shown) [Cpd 381, 1-(2-(azetidin-2-yl)quinolin-5-yl)-N-(5-chloro-6-(2H-1,2,3-triazol-2-yl)pyridin-3-yl)-5-(trifluoromethyl)-1H-pyrazole-4-carboxamide] | – | –
